The values below are quoted from earlier work in patent publication US20050004105A1, “Treatment for a attention-deficit hyperactivity disorder” (priority 2003, published 2005).

Counter-ions that a name gives are not always drawn.

One series has as its target 5-HT1B/1D receptor. Conditions: [125I]iodocyanopindolol 0.15 nM in striatum; exemplary protocol; read-out: Ki of reference compound, 5-HT1B/1D binding assay; cited from earlier work.
The target of another series is α1 receptor. Conditions: rat forebrain membranes, [3H]7-MeOxy-prazosin; exemplary protocol; read-out: Ki of reference compound, α1 binding assay; cited from earlier work.

For `NCCc1c[nH]c2ccc(O)cc12` [5-HT], the Ki at 5-HT1B/1D receptor is ~13.8 nM.

`Cc1ccc(N(CC2=NCCN2)c2cccc(O)c2)cc1` [phentolamine mesylate]: at α1 receptor, the Ki was ~5.4 nM.
